The results in this text go back to US20240317752A1, “6-SUBSTITUTED-9H-PURINE DERIVATIVES AND RELATED USES” (Black Diamond Therapeutics, Inc., priority 2021, published 2024).

Usually GI50 stands for the concentration that inhibits growth by half. A high value points to less potent growth inhibition.

The target of this assay is T1, BaF3 BRAF-KIAA1549 fusion cells (Homo sapiens, UniProt P15056).
T1 construct: The BRAF-KIAA1549 fusion mutant was subcloned into pMXs-IRES-Blasticidin (RTV-016, Cell Biolabs, San Diego, CA); fused on or other part: Q9HCM3 (UPF0606 protein KIAA1549)
Kind of assay: BaF3 BRAF-KIAA1549 fusion cell proliferation assay (CellTiterGlo). The settings on record: 96 hours incubation, potency code. It is filed as cell-based. The method in brief: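 BaF3 cells stably transduced with a BRAF-KIAA1549 fusion, blasticidin-selected and growing without IL-3, were treated with compound for 96 h in RPMI/10% heat-inactivated FBS. Viability read as ATP content by CellTiterGlo luminescence, normalised to DMSO-treated cells. IC50 by Levenberg-Marquardt fit.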
Background: Cellular ATP, detected with luciferase, serves as a proxy for viable cell number.

Molecules are shown by their SMILES.

T1 sequence (P15056 whole entry, change not shown, the tested form may be a part): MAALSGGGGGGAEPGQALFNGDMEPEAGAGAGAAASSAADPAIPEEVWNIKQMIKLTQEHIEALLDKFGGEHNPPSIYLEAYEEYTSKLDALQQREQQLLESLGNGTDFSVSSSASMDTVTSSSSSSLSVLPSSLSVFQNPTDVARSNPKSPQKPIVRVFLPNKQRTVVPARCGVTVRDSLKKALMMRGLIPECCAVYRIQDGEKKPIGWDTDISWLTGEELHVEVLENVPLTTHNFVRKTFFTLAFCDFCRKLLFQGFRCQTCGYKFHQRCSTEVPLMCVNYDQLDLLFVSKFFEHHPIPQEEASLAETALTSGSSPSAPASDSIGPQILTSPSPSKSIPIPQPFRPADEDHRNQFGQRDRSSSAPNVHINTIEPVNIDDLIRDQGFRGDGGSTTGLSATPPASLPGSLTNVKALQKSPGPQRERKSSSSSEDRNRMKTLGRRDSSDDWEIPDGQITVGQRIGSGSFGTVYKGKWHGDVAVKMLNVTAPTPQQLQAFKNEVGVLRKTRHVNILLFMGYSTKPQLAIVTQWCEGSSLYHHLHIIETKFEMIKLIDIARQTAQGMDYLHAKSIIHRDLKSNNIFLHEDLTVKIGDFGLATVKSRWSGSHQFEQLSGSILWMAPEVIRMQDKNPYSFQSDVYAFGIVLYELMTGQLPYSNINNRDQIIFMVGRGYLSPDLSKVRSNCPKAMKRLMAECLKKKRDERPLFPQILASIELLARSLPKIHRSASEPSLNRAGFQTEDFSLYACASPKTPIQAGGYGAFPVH

Consider `Cc1ccc(NC(=O)CN2CCCC(C(F)(F)F)C2)cc1Nc1ncccc1-c1ncnc2[nH]cnc12` (centres unmarked) [Compound I-77, N-(3-((3-(9H-purin-6-yl)pyridin-2-yl)amino)-4-methylphenyl)-2-(3-(trifluoromethyl)piperidin-1-yl)acetamide], for which the GI50 was less than 20 nM.
Consider `Cc1ccc(NC(=O)Cn2cnc(C(F)(F)F)n2)cc1Nc1ncccc1-c1ncnc2[nH]cnc12` [Compound I-78, N-(3-((3-(9H-purin-6-yl)pyridin-2-yl)amino)-4-methylphenyl)-2-(3-(trifluoromethyl)-1H-1,2,4-triazol-1-yl)acetamide], for which the GI50 was 20 to 100 nM.
Then `Cc1ccc(C(=O)Nc2cc(C(C)(C)C)nn2C2CC2)cc1Nc1ncccc1-c1ncnc2[nH]cnc12` [Compound I-79, 3-((3-(9H-purin-6-yl)pyridin-2-yl)amino)-N-(3-(tert-butyl)-1-cyclopropyl-1H-pyrazol-5-yl)-4-methylbenzamide], with 100 to 500 nM; and `Cc1ccc(NC(=O)c2cccc(N(C)C)c2)cc1Nc1ncccc1-c1ncnc2[nH]cnc12` [Compound I-80, N-(3-((3-(9H-purin-6-yl)pyridin-2-yl)amino)-4-methylphenyl)-3-(dimethylamino)benzamide], with less than 20 nM; and `Cc1ccc(NC(=O)c2ccc(Cl)c(N(C)C)c2)cc1Nc1ncccc1-c1ncnc2[nH]cnc12` [Compound I-81, N-(3-((3-(9H-purin-6-yl)pyridin-2-yl)amino)-4-methylphenyl)-4-chloro-3-(dimethylamino)benzamide], with less than 20 nM.
Under `Cc1ccc(NC(=O)CC2CCCCCO2)cc1Nc1ncccc1-c1ncnc2[nH]cnc12` (centres unmarked) [Compound I-82, N-(3-((3-(9H-purin-6-yl)pyridin-2-yl)amino)-4-methylphenyl)-2-(oxepan-2-yl)acetamide] stands less than 20 nM; under `Cc1ccc(NC(=O)CC2CCNCCO2)cc1Nc1ncccc1-c1ncnc2[nH]cnc12` (centres unmarked) [Compound I-83, N-(3-((3-(9H-purin-6-yl)pyridin-2-yl)amino)-4-methylphenyl)-2-(1,4-oxazepan-7-yl)acetamide], not below 500 nM; under `Cc1ccc(NC(=O)CN2CCN3CCC2C3)cc1Nc1ncccc1-c1ncnc2[nH]cnc12` (centres unmarked) [Compound I-89, N-(3-((3-(9H-purin-6-yl)pyridin-2-yl)amino)-4-methylphenyl)-2-(1,4-diazabicyclo[3.2.1]octan-4-yl)acetamide], not below 500 nM.
Under `Cc1ccc(NC(=O)c2cc(C(F)F)c(C)cn2)cc1Nc1ncccc1-c1ncnc2[nH]cnc12` [IA-90, N-(3-((3-(9H-purin-6-yl)pyridin-2-yl)amino)-4-methylphenyl)-4-(difluoromethyl)-5-methylpicolinamide] stands 20 to 100 nM.
The compound `Cc1ccc(NC(=O)c2ncc(C)c(C(F)(F)F)c2F)cc1Nc1ncccc1-c1ncnc2[nH]cnc12` [IA-91, N-(3-(3-(9H-purin-6-yl)pyridin-2-ylamino)-4-methylphenyl)-3-fluoro-5-methyl-4-(trifluoromethyl)picolinamide] gave a GI50 of 20 to 100 nM.
Consider `CCc1cnc(C(=O)Nc2ccc(C)c(Nc3ncccc3-c3ncnc4[nH]cnc34)c2)cc1C(F)(F)F` [IA-92, N-(3-(3-(9H-purin-6-yl)pyridin-2-ylamino)-4-methylphenyl)-5-ethyl-4-(trifluoromethyl)picolinamide], for which the GI50 lay in the range of 20 to 100 nM.
Then `Cc1cc(C(F)(F)F)cc(C(=O)Nc2ccc(C)c(Nc3ncccc3-c3ncnc4[nH]cnc34)c2)n1` [IA-93, N-(3-((3-(9H-purin-6-yl)pyridin-2-yl)amino)-4-methylphenyl)-6-methyl-4-(trifluoromethyl)picolinamide], with 20 to 100 nM; and `Cc1ccc(NC(=O)c2cc(C(F)(F)F)c(OC3CN(C)C3)cn2)cc1Nc1ncccc1-c1ncnc2[nH]cnc12` [IA-94, N-(3-(3-(9H-purin-6-yl)pyridin-2-ylamino)-4-methylphenyl)-5-(1-methylazetidin-3-yloxy)-4-(trifluoromethyl)picolinamide], with 100 to 500 nM.
Under `Cc1ccc(NC(=O)c2cc(C(F)(F)F)c(OC3COC3)cn2)cc1Nc1ncccc1-c1ncnc2[nH]cnc12` [IA-95, N-(3-(3-(9H-purin-6-yl)pyridin-2-ylamino)-4-methylphenyl)-5-(oxetan-3-yloxy)-4-(trifluoromethyl)picolinamide] stands less than 20 nM; under `Cc1ccc(NC(=O)c2cc(C(F)(F)F)c(OC3CNC3)cn2)cc1Nc1ncccc1-c1ncnc2[nH]cnc12` [IA-96, N-(3-(3-(9H-purin-6-yl)pyridin-2-ylamino)-4-methylphenyl)-5-(azetidin-3-yloxy)-4-(trifluoromethyl)picolinamide], 20 to 100 nM; under `Cc1ccc(NC(=O)c2cc(C(F)(F)F)c(OCCN(C)C)cn2)cc1Nc1ncccc1-c1ncnc2[nH]cnc12` [IA-97, N-(3-(3-(9H-purin-6-yl)pyridin-2-ylamino)-4-methylphenyl)-5-(2-(dimethylamino)ethoxy)-4-(trifluoromethyl)picolinamide], less than 20 nM.
Under `Cc1ccc(NC(=O)c2cc(C(F)(F)F)cc(OCCO)n2)cc1Nc1ncccc1-c1ncnc2[nH]cnc12` [IA-98, N-(3-((3-(9H-purin-6-yl)pyridin-2-yl)amino)-4-methylphenyl)-6-(2-hydroxyethoxy)-4-(trifluoromethyl)picolinamide] stands less than 20 nM.
For `Cc1ccc(NC(=O)CC2CCCCOC2)cc1Nc1ncccc1-c1ncnc2[nH]cnc12` (centres unmarked) [IA-99, N-(3-(3-(9H-purin-6-yl)pyridin-2-ylamino)-4-methylphenyl)-2-(oxepan-3-yl)acetamide], the GI50 was 20 to 100 nM.
`COc1cnc(C(=O)Nc2ccc(C)c(Nc3ncccc3-c3ncnc4[nH]cnc34)c2)cc1C(F)(F)F` [IA-100, N-(3-(3-(9H-purin-6-yl)pyridin-2-ylamino)-4-methylphenyl)-5-methoxy-4-(trifluoromethyl)picolinamide] gave a GI50 of 20 to 100 nM.
`COc1c(C(F)(F)F)ccnc1C(=O)Nc1ccc(C)c(Nc2ncccc2-c2ncnc3[nH]cnc23)c1` [IA-101, N-(3-(3-(9H-purin-6-yl)pyridin-2-ylamino)-4-methylphenyl)-3-methoxy-4-(trifluoromethyl)picolinamide] returned a GI50 of less than 20 nM.
With `Cc1ccc(NC(=O)CC2CCCOCC2)cc1Nc1ncccc1-c1ncnc2[nH]cnc12` (centres unmarked) [IA-102, N-(3-(3-(9H-purin-6-yl)pyridin-2-ylamino)-4-methylphenyl)-2-(oxepan-4-yl)acetamide], the GI50 was in the range of 100 to 500 nM.
Under `Cc1ccc(NC(=O)CN2CCC[C@H](C(F)(F)F)C2)cc1Nc1ncccc1-c1ncnc2[nH]cnc12` [IA-103, (S)—N-(3-(3-(9H-purin-6-yl)pyridin-2-ylamino)-4-methylphenyl)-2-(3-(trifluoromethyl)piperidin-1-yl)acetamide] stands less than 20 nM; under `Cc1ccc(NC(=O)c2cc(C(F)(F)F)c(OCCO)cn2)cc1Nc1ncccc1-c1ncnc2[nH]cnc12` [IA-104, N-(3-(3-(9H-purin-6-yl)pyridin-2-ylamino)-4-methylphenyl)-5-(2-hydroxyethoxy)-4-(trifluoromethyl)picolinamide], less than 20 nM; under `Cc1ccc(NC(=O)CC2CC(C(F)(F)F)CCO2)cc1Nc1ncccc1-c1ncnc2[nH]cnc12` (centres unmarked) [IA-105, N-(3-((3-(9H-purin-6-yl)pyridin-2-yl)amino)-4-methylphenyl)-2-(4-(trifluoromethyl)tetrahydro-2H-pyran-2-yl)acetamide], 20 to 100 nM.
Then `Cc1ccc(NC(=O)c2nccc(C(F)(F)F)c2Cl)cc1Nc1ncccc1-c1ncnc2[nH]cnc12` [IA-106, N-(3-(3-(9H-purin-6-yl)pyridin-2-ylamino)-4-methylphenyl)-3-chloro-4-(trifluoromethyl)picolinamide], with less than 20 nM; and `Cc1ccc(NC(=O)CN2CCC[C@@H](C(F)(F)F)C2)cc1Nc1ncccc1-c1ncnc2[nH]cnc12` [IA-107, (R)—N-(3-((3-(9H-purin-6-yl)pyridin-2-yl)amino)-4-methylphenyl)-2-(3-(trifluoromethyl)piperidin-1-yl)acetamide], with less than 20 nM.
Under `Cc1ccc(NC(=O)C23CC(C(F)(F)F)(CO2)C3)cc1Nc1ncccc1-c1ncnc2[nH]cnc12` [IA-108, N-(3-(3-(9H-purin-6-yl)pyridin-2-ylamino)-4-methylphenyl)-4-(trifluoromethyl)-2-oxabicyclo[2.1.1]hexane-1-carboxamide] stands 100 to 500 nM; under `Cc1ccc(NC(=O)CN2CC[C@H](C(F)(F)F)C2)cc1Nc1ncccc1-c1ncnc2[nH]cnc12` [IA-109, (S)—N-(3-((3-(9H-purin-6-yl)pyridin-2-yl)amino)-4-methylphenyl)-2-(3-(trifluoromethyl)pyrrolidin-1-yl)acetamide], less than 20 nM; under `Cc1ccc(NC(=O)CN2CCCCCC2)cc1Nc1ncccc1-c1ncnc2[nH]cnc12` [IA-110, N-(3-((3-(9H-purin-6-yl)pyridin-2-yl)amino)-4-methylphenyl)-2-(azepan-1-yl)acetamide], 20 to 100 nM.
The compound `Cc1ccc(NC(=O)CN2CC[C@@H](C(F)(F)F)C2)cc1Nc1ncccc1-c1ncnc2[nH]cnc12` [IA-111, (R)—N-(3-(3-(9H-purin-6-yl)pyridin-2-ylamino)-4-methylphenyl)-2-(3-(trifluoromethyl)pyrrolidin-1-yl)acetamide] showed a GI50 of less than 20 nM.
Then `Cc1ccc(NC(=O)CN2CCCCC(F)(F)C2)cc1Nc1ncccc1-c1ncnc2[nH]cnc12` [IA-112, N-(3-(3-(9H-purin-6-yl)pyridin-2-ylamino)-4-methylphenyl)-2-(3,3-difluoroazepan-1-yl)acetamide], with 100 to 500 nM; and `Cc1ccc(NC(=O)CC2CCCCCC2)cc1Nc1ncccc1-c1ncnc2[nH]cnc12` [IA-113, N-(3-((3-(9H-purin-6-yl)pyridin-2-yl)amino)-4-methylphenyl)-2-cycloheptylacetamide], with less than 20 nM.
